The values that follow come from PMC3532939 (Biochemistry, 2012).

One test addresses T1, SmPabB (Stenotrophomonas maltophilia, UniProt B2FR92).
T1 sequence (B2FR92 1-454): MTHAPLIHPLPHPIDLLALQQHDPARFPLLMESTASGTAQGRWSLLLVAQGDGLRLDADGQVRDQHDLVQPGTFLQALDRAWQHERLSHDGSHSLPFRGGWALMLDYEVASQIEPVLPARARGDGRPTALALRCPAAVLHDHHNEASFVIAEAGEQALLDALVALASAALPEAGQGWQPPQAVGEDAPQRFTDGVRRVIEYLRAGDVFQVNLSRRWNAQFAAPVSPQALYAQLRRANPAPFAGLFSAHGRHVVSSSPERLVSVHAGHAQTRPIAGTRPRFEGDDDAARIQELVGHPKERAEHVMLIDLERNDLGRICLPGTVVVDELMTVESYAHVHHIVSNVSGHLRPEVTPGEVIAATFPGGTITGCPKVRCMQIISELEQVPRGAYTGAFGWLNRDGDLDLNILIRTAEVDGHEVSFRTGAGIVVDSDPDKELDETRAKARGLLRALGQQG
The experiment in a line: isothermal titration calorimetry. It is filed as binding. On the technique in general: In ITC the heat of successive injections is recorded.

A further test has as its target T2, E. coli PabB (Escherichia coli, UniProt P05041).
T2 sequence (P05041 1-453): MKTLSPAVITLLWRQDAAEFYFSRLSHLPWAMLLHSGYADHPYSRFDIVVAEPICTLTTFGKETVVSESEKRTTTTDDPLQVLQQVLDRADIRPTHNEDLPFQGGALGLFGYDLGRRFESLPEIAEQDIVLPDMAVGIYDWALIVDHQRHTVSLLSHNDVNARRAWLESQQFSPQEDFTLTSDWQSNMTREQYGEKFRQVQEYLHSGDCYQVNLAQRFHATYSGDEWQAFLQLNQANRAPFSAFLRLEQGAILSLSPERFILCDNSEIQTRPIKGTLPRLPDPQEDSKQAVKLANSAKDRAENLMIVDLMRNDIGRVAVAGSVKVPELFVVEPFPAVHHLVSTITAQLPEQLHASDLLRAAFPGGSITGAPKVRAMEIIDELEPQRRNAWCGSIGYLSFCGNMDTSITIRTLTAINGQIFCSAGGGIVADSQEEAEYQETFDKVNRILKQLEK
The experiment in a line: LC/MS of bound ligand released from purified protein. It is filed as binding. Conditions: co-purified tryptophan; vestigial regulatory site.

Test [1] has as its target T3, Stenotrophomonas maltophilia PabB (aminodeoxychorismate synthase) (Stenotrophomonas maltophilia, UniProt B2FR92 2-454).
T3 sequence: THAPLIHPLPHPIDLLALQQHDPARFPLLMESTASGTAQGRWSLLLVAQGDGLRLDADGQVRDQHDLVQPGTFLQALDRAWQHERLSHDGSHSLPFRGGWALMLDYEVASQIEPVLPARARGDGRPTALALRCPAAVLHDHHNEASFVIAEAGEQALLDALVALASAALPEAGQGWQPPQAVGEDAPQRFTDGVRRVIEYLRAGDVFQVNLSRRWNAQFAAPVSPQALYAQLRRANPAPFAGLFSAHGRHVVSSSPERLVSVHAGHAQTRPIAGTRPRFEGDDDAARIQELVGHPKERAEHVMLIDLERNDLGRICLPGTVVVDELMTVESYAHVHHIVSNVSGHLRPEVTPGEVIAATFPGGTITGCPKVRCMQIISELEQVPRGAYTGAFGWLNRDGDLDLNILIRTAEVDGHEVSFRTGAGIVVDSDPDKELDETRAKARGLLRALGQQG
The experiment in a line: other fluorescence titration.

The target in test [2] is T4, E. coli PabB (aminodeoxychorismate synthase) (E. coli, UniProt P05041 1-453).
T4 sequence: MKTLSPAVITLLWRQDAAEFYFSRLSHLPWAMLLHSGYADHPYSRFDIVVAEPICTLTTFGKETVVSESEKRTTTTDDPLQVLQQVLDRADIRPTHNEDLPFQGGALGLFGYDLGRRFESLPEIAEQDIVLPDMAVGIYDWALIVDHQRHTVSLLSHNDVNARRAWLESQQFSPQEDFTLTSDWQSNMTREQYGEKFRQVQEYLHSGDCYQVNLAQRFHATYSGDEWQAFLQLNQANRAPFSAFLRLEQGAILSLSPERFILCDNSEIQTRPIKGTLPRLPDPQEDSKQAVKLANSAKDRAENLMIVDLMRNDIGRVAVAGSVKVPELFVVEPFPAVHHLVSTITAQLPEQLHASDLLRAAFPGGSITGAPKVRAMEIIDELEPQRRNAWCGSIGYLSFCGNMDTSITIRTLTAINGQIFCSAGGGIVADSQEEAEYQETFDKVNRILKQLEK
The experiment in a line: other fluorescence titration.

Turning to `N[C@@H](Cc1c[nH]c2ccccc12)C(=O)O` [tryptophan], at SmPabB, the Kd is around 11.7 µM. On E. coli PabB, the “LC/MS of bound ligand released from purified protein” value is “E. coli PabB samples, as expected, contained tryptophan”.

B1: E. coli PabA (glutamine amidotransferase subunit of aminodeoxychorismate synthase) (enzyme, UniProt P00903 1-187, looked up)
chain: MILLIDNYDSFTWNLYQYFCELGADVLVKRNDALTLADIDALKPQKIVISPGPCTPDEAGISLDVIRHYAGRLPILGVCLGHQAMAQAFGGKVVRAAKVMHGKTSPITHNGEGVFRGLANPLTVTRYHSLVVEPDSLPACFDVTAWSETREIMGIRHRQWDLEGVQFHPESILSEQGHQLLANFLHR
Take B1: the values for the Kd in test [1] and in test [2] were 39 nM and 109 nM, respectively.

One may read the Kd as the equilibrium constant for the complex coming apart. A lower Kd goes with higher affinity.
